In the NIST ThermoML archive (doi:10.1021/je700260f):

Settings: 323.15 K, Liquid, Vibrating tube method

FC(C(F)(F)F)C(F)(F)F [1,1,1,2,3,3,3-heptafluoropropane]
Settings	mass density [kg/m3]
9744 kPa	1360.2
9763 kPa	1360.3
9782 kPa	1360.5
9800 kPa	1360.6
9817 kPa	1360.8
9836 kPa	1360.8
9857 kPa	1361.2
9876 kPa	1361.3
9894 kPa	1361.4
10348 kPa	1364.7
10377 kPa	1364.9
10394 kPa	1364.9
10416 kPa	1365.1
10433 kPa	1365.2
10451 kPa	1365.3
10468 kPa	1365.4
10492 kPa	1365.7
10512 kPa	1365.7
10532 kPa	1365.9
10553 kPa	1366
10577 kPa	1366.2
10595 kPa	1366.3
10749 kPa	1367.4
10766 kPa	1367.5
10786 kPa	1367.7
10804 kPa	1367.8
10828 kPa	1367.9
10845 kPa	1368.1
10864 kPa	1368.3
10894 kPa	1368.4
11387 kPa	1371.8
11407 kPa	1371.9
11425 kPa	1372
11446 kPa	1372.2
11463 kPa	1372.3
11483 kPa	1372.5
11501 kPa	1372.7
11519 kPa	1372.7
11540 kPa	1372.9
12697 kPa	1380.5
12717 kPa	1380.6
12774 kPa	1380.8
12791 kPa	1381
12809 kPa	1381.2
12835 kPa	1381.4
12849 kPa	1381.5
12876 kPa	1381.6
12893 kPa	1381.6
12913 kPa	1381.8
12933 kPa	1382
12950 kPa	1382.2
12971 kPa	1382.2
12984 kPa	1382.4
13009 kPa	1382.4
13183 kPa	1383.5
13201 kPa	1383.6
13222 kPa	1383.8
13245 kPa	1383.9
13732 kPa	1386.8
13757 kPa	1387.1
13777 kPa	1387.2
13803 kPa	1387.2
13826 kPa	1387.4
13851 kPa	1387.5
13891 kPa	1387.8
13911 kPa	1387.9
13940 kPa	1388.1
13964 kPa	1388.4
13981 kPa	1388.6
14001 kPa	1388.5
14024 kPa	1388.6
14045 kPa	1388.8
14066 kPa	1388.9
14089 kPa	1389.2
14106 kPa	1389.2
14126 kPa	1389.3
14223 kPa	1390
14245 kPa	1390
14268 kPa	1390.2
14290 kPa	1390.1
14307 kPa	1390.4
14331 kPa	1390.5
14346 kPa	1390.7
14525 kPa	1391.7
14547 kPa	1392
14564 kPa	1392
14584 kPa	1392
14606 kPa	1392.1
14624 kPa	1392.3
14649 kPa	1392.4
14665 kPa	1392.5
14689 kPa	1392.6
14710 kPa	1392.9
15240 kPa	1396
15711 kPa	1398.5
15733 kPa	1398.8
15763 kPa	1398.9
15783 kPa	1399.1
15811 kPa	1399.3
15834 kPa	1399.3
15857 kPa	1399.5
15884 kPa	1399.6
15907 kPa	1399.8
15931 kPa	1400
15952 kPa	1399.9
15979 kPa	1400.1
15995 kPa	1400.2
16018 kPa	1400.3
16047 kPa	1400.5
16072 kPa	1400.6
16209 kPa	1401.3
16238 kPa	1401.5
16257 kPa	1401.7
16276 kPa	1401.7
16300 kPa	1401.9
16318 kPa	1402
16339 kPa	1402.1
16364 kPa	1402.3
16385 kPa	1402.4
16407 kPa	1402.6
16429 kPa	1402.6
16451 kPa	1402.8
16474 kPa	1402.8
16502 kPa	1403
16520 kPa	1403.2
16544 kPa	1403.3
16566 kPa	1403.2
16584 kPa	1403.6
16603 kPa	1403.7
16629 kPa	1403.6
16649 kPa	1403.9
16677 kPa	1404.1
16763 kPa	1404.5
16808 kPa	1404.8
16827 kPa	1404.9
16854 kPa	1405.1
16872 kPa	1405
16898 kPa	1405.2
16920 kPa	1405.3
16947 kPa	1405.5
16978 kPa	1405.6
16998 kPa	1405.8
17027 kPa	1406
17050 kPa	1406
17073 kPa	1406.2
17097 kPa	1406.2
17120 kPa	1406.4
17141 kPa	1406.4
17170 kPa	1406.7
17197 kPa	1406.8
17220 kPa	1406.9
17330 kPa	1407.5
17378 kPa	1407.6
17898 kPa	1410.5
17952 kPa	1410.9
17976 kPa	1411.1
17998 kPa	1411.2
18024 kPa	1411.4
18049 kPa	1411.4
18081 kPa	1411.6
18105 kPa	1411.8
18129 kPa	1411.7
18160 kPa	1412
18184 kPa	1412.1
18240 kPa	1412.4
18317 kPa	1412.9
18547 kPa	1414
18567 kPa	1414.1
18596 kPa	1414.3
18614 kPa	1414.3
18862 kPa	1415.5
18885 kPa	1415.8
18905 kPa	1415.8
18929 kPa	1416
18952 kPa	1416.1
18981 kPa	1416.2
19007 kPa	1416.4
19162 kPa	1417
19197 kPa	1417.4
20153 kPa	1422
20175 kPa	1422.2
20203 kPa	1422.2
20225 kPa	1422.4
20251 kPa	1422.6
20283 kPa	1422.7
20313 kPa	1422.8
20340 kPa	1422.8
20370 kPa	1423.2
20404 kPa	1423.3
20429 kPa	1423.4
20481 kPa	1423.6
21768 kPa	1429.8
21806 kPa	1430
21829 kPa	1430.1
21855 kPa	1430
21886 kPa	1430.3
21913 kPa	1430.5
21936 kPa	1430.6
21971 kPa	1430.7
22991 kPa	1435.4
23635 kPa	1438.4
23664 kPa	1438.4
23690 kPa	1438.6
23714 kPa	1438.6
23750 kPa	1438.7
